The record followed here is ChEMBL document CHEMBL1250483, “Three-dimensional quantitative structure-activity relationship CoMSIA/CoMFA and LeapFrog studies on novel series of bicyclo [4.1.0] heptanes derivatives as melanin-concentrating hormone receptor R1 antagonists” (Eur J Med Chem, 2010).

Melanin-concentrating hormone receptor 1, sequence (Q99705 whole entry): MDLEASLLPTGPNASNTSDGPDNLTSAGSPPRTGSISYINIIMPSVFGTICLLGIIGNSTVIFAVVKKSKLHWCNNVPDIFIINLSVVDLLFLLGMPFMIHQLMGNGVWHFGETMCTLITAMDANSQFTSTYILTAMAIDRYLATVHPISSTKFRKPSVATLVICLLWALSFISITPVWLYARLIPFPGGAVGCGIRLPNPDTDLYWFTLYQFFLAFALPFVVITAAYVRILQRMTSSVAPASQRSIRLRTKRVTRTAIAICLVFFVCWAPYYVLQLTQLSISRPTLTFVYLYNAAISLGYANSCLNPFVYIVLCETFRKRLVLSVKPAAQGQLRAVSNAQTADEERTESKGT

The experiment addresses Melanin-concentrating hormone receptor 1 (Homo sapiens, UniProt Q99705). Description: Antagonist activity at MCH1 receptor. It counts as functional.
For orientation: Ki means the equilibrium dissociation constant of an inhibitor or competing ligand from its target. Low readings indicate a stronger hold on the target, high ones a looser hold on the target. `COC1CCN(CCN(C(=O)Nc2ccc(F)c(Cl)c2)C2CC[C@]3(c4cccc(C#N)c4)CC3C2)CC1` (stereo partly drawn): the affinity, expressed as Ki, was 15 nM.
The compound `C[N+]1(CCN(C(=O)Nc2ccc(F)c(Cl)c2)C2CC[C@]3(c4cccc(C#N)c4)CC3C2)CCCCC1` (stereo partly drawn) gave a Ki of 15 nM.
Under `CO/N=C/c1cccc([C@]23CCC(N(CCN(C(C)C)C(C)C)C(=O)Nc4ccc(F)c(Cl)c4)CC2C3)c1` (stereo partly drawn) stands 4.1 nM; under `N#Cc1cccc([C@]23CCC(N(CCN4CC[C@@H](O)C4)C(=O)Nc4cccc([N+](=O)[O-])c4)CC2C3)c1` (stereo partly drawn), 60 nM.
The value for `CC(C)N(CCN(C(=O)Nc1ccc(F)c(F)c1)C1CC[C@]2(c3cccc(Br)c3)CC2C1)C(C)C` (stereo partly drawn) was 7.76 nM; that for `Cc1ccc(NC(=O)N(CCN2CC[C@@H](O)C2)C2CC[C@]3(c4cccc(C#N)c4)CC3C2)cc1F` (stereo partly drawn) was 48 nM; that for `CC(C)N(CCN(C(=O)Nc1ccc(F)c(Cl)c1)C1CC[C@]2(c3cccc(CN4CCN(C)CC4)c3)CC2C1)C(C)C` (stereo partly drawn) was 54 nM.
Compound `N#Cc1cccc([C@]23CCC(N(CCN4CC[C@@H](O)C4)C(=O)Nc4ccc(F)cc4)CC2C3)c1` (stereo partly drawn) had a Ki of 54 nM.
`CC(C)N(CCN(C(=O)Nc1cc(F)cc(F)c1)C1CC[C@]2(c3cccc(C#N)c3)CC2C1)C(C)C` (stereo partly drawn): the inhibition constant Ki was 4.5 nM.
Consider `CN(C)Cc1cccc([C@]23CCC(N(CC4CCN(S(C)(=O)=O)CC4)C(=O)Nc4cc(Cl)nc(Cl)c4)CC2C3)c1` (stereo partly drawn), for which the Ki is 3.3 nM.
The value for `CS(=O)(=O)N1CCC(CCN(C(=O)Nc2ccc(F)c(C(F)(F)F)c2)C2CC[C@]3(c4cccc(C#N)c4)CC3C2)CC1` (stereo partly drawn) was 80 nM; that for `CC(C)N(CCN(C(=O)Nc1cc(Cl)nc(Cl)c1)C1CC[C@]2(c3cccc(C#N)c3)CC2C1)C(C)C` (stereo partly drawn) was 2.4 nM; that for `CS(=O)(=O)N1CCC(CN(C(=O)Nc2ccc(F)c(C(F)(F)F)c2)C2CC[C@]3(c4cccc(C#N)c4)CC3C2)CC1` (stereo partly drawn) was 26 nM.
The value for `N#Cc1cccc([C@]23CCC(N(CCN4CC[C@@H](O)C4)C(=O)Nc4cccc(Br)c4)CC2C3)c1` (stereo partly drawn) was 34 nM; that for `CC(C)N(CCN(C(=O)Nc1ccc(F)c(Cl)c1)C1CC[C@]2(c3cccc(C#N)c3)CC2C1)[C@H](C)CO` (stereo partly drawn) was 9.4 nM; that for `N#Cc1cccc([C@]23CCC(N(CCN4CCCCCC4)C(=O)Nc4ccc(F)c(Cl)c4)CC2C3)c1` (stereo partly drawn) was 15 nM.
With `CC(C)N(CCN(C(=O)Nc1cccc([N+](=O)[O-])c1)C1CC[C@]2(c3cccc(C#N)c3)CC2C1)C(C)C` (stereo partly drawn), the inhibitory constant (Ki) is 2.7 nM.
The compound `N#Cc1cccc([C@]23CCC(N(CCN4CCOCC4)C(=O)Nc4ccc(F)c(Cl)c4)CC2C3)c1` (stereo partly drawn) showed a Ki of 11 nM.
Compound `CCO/N=C/c1cccc([C@]23CCC(N(CCN(C(C)C)C(C)C)C(=O)Nc4ccc(F)c(Cl)c4)CC2C3)c1` (stereo partly drawn) showed an inhibition constant Ki of 29 nM.
The value for `CCS(=O)(=O)N1CCC(CN(C(=O)Nc2ccc(F)c(F)c2)C2CC[C@]3(c4cccc(C#N)c4)CC3C2)CC1` (stereo partly drawn) was 21 nM; that for `CC(C)N(CCN(C(=O)Nc1ccc(F)c(Cl)c1)C1CC[C@]2(c3cccc(C#N)c3)CC2C1)C(C)C` (stereo partly drawn) was 4.98 nM.
`CC(C)N(CCN(C(=O)Nc1cccc(Br)c1)C1CC[C@]2(c3cccc(C#N)c3)CC2C1)C(C)C` (stereo partly drawn) gave a Ki of 5.7 nM.
Under `CC(C)N(CCO)CCN(C(=O)Nc1cc(Cl)nc(Cl)c1)C1CC[C@]2(c3cccc(C#N)c3)CC2C1` (stereo partly drawn) stands 1.6 nM; under `CC(C)N(CCN(C(=O)Nc1ccc(F)cc1)C1CC[C@]2(c3cccc(C#N)c3)CC2C1)C(C)C` (stereo partly drawn), 10.4 nM; under `CC(C)N(CCN(C(=O)Nc1ccc(F)c(Cl)c1)C1CC[C@]2(c3cccc(CNS(C)(=O)=O)c3)CC2C1)C(C)C` (stereo partly drawn), 18 nM.
In turn, `N#Cc1cccc([C@]23CCC(N(CCN4CC[C@@H](O)C4)C(=O)Nc4cccc(Cl)c4)CC2C3)c1` (stereo partly drawn) gave an inhibitory constant (Ki) of 27 nM.
`CC1CC[C@@H](CO)N1CCN(C(=O)Nc1ccc(F)c(Cl)c1)C1CC[C@]2(c3cccc(C#N)c3)CC2C1` (stereo partly drawn) gave a Ki of 11 nM.
The value for `CC(=O)NCc1cccc([C@]23CCC(N(CCN(C(C)C)C(C)C)C(=O)Nc4ccc(F)c(Cl)c4)CC2C3)c1` (stereo partly drawn) was 31 nM.
Under `CC(C)N(CCO)CCN(C(=O)Nc1ccc(F)c(Cl)c1)C1CC[C@]2(c3cccc(C#N)c3)CC2C1` (stereo partly drawn) stands 8.71 nM; under `CC(C)N(CCN(C(=O)Nc1cc(Cl)nc(Cl)c1)C1CC[C@]2(c3cccc(C#N)c3)CC2C1)[C@@H](C)CO` (stereo partly drawn), 1.6 nM; under `CC(C)N(CCN(C(=O)Nc1ccc(F)c(Cl)c1)C1CC[C@]2(c3cccc(C#N)c3)CC2C1)[C@@H](C)CO` (stereo partly drawn), 5.2 nM.
The compound `CS(=O)(=O)N1CCC(CN(C(=O)Nc2cc(Cl)nc(Cl)c2)C2CC[C@]3(c4cccc(CN5CC[C@H](O)C5)c4)CC3C2)CC1` (stereo partly drawn) gave an inhibitory constant (Ki) of 8.89 nM.
For the compound `N#Cc1cccc([C@]23CCC(N(CCN4CCCC(O)C4)C(=O)Nc4ccc(F)c(Cl)c4)CC2C3)c1` (stereo partly drawn), the Ki was 22 nM.
Consider `N#Cc1cccc([C@]23CCC(N(CCN4CC[C@@H](O)C4)C(=O)Nc4ccc(OCOc5ccccc5)c(OCOc5ccccc5)c4)CC2C3)c1` (stereo partly drawn), for which the affinity corresponds to a Ki of 134 nM.
Consider `CS(=O)(=O)N1CCC(CN(C(=O)Nc2ccc(F)c(F)c2)C2CC[C@]3(c4cccc(C#N)c4)CC3C2)CC1` (stereo partly drawn), for which the affinity, expressed as Ki, was 5.4 nM.
Under `CC(C)NCCN(C(=O)Nc1cc(Cl)nc(Cl)c1)C1CC[C@]2(c3cccc(C#N)c3)CC2C1` (stereo partly drawn) stands 1.9 nM.
Under `N#Cc1cccc([C@]23CCC(N(CCN4CC[C@@H](O)C4)C(=O)Nc4ccc(F)c(F)c4)CC2C3)c1` (stereo partly drawn) stands 20 nM.
Under `COc1cccc(NC(=O)N(CCN2CC[C@@H](O)C2)C2CC[C@]3(c4cccc(C#N)c4)CC3C2)c1` (stereo partly drawn) stands 373 nM.
Regarding `CC(=O)C1CCC(C2=CCC(N(CCN3CCCC3)C(=O)Nc3ccc(F)c(Cl)c3)CC2)S1` (stereo not drawn), the Ki was 31 nM.
The compound `C[N+]1(CCN(C(=O)Nc2ccc(F)c(Cl)c2)C2CC[C@]3(c4cccc(C#N)c4)CC3C2)CCCC1` (stereo partly drawn) showed an inhibitory constant (Ki) of 16 nM.
Compound `CS(=O)(=O)N1CCC(CN(C(=O)Nc2cccc(F)c2)C2CC[C@]3(c4cccc(C#N)c4)CC3C2)CC1` (stereo partly drawn) showed a Ki of 9.71 nM.
The value for `CC(C)N(CCN(C(=O)Nc1ccc(F)c(Cl)c1)C1CC[C@]2(c3cccc(CO)c3)CC2C1)C(C)C` (stereo partly drawn) was 48 nM; that for `CS(=O)(=O)N1CCC(CN(C(=O)Nc2ccc(F)c(Cl)c2)C2CC[C@]3(c4cccc(C#N)c4)CC3C2)CC1` (stereo partly drawn) was 7.19 nM.
`CS(=O)(=O)N1CCCC(CN(C(=O)Nc2ccc(F)c(Cl)c2)C2CC[C@]3(c4cccc(C#N)c4)CC3C2)C1` (stereo partly drawn): the inhibitory constant (Ki) was 211 nM.
The value for `CC(=O)C1CCCN1CCN(C(=O)Nc1ccc(F)c(Cl)c1)C1CC[C@]2(c3cccc(C#N)c3)CC2C1` (stereo partly drawn) was 23 nM.
The value for `CC(C)N(CCN(C(=O)Nc1cccc(Cl)c1)C1CC[C@]2(c3cccc(C#N)c3)CC2C1)C(C)C` (stereo partly drawn) was 6 nM.
The value for `N#Cc1cccc([C@]23CCC(N(CCN4CC[C@@H](O)C4)C(=O)Nc4cc(F)cc(F)c4)CC2C3)c1` (stereo partly drawn) was 15 nM.
`N#Cc1cccc([C@]23CCC(N(CCNCCF)C(=O)Nc4cc(Cl)nc(Cl)c4)CC2C3)c1` (stereo partly drawn): the affinity corresponds to a Ki of 4.4 nM.
Under `CC1CC[C@@H](CO)N1CCN(C(=O)Nc1cc(Cl)nc(Cl)c1)C1CC[C@]2(c3cccc(C#N)c3)CC2C1` (stereo partly drawn) stands 1.2 nM; under `CCN(CC)Cc1cccc([C@]23CCC(N(CCN(C(C)C)C(C)C)C(=O)Nc4ccc(F)c(Cl)c4)CC2C3)c1` (stereo partly drawn), 46 nM.
The value for `CC(=O)N1CCC(CN(C(=O)Nc2ccc(F)c(Cl)c2)C2CC[C@]3(c4cccc(C#N)c4)CC3C2)CC1` (stereo partly drawn) was 312 nM.
Consider `CC1CCC(C2=CCC(N(CCN3CCCC3)C(=O)Nc3ccc(F)c(Cl)c3)CC2)S1` (stereo not drawn), for which the Ki is 84.9 nM.
`CC(C)N(CCN(C(=O)Nc1ccc(F)c(Cl)c1)C1CC[C@]2(c3cccc(CN4CC[C@H](O)C4)c3)CC2C1)C(C)C` (stereo partly drawn) had a Ki of 21 nM.
`CS(=O)(=O)N1CCCCC1CN(C(=O)Nc1ccc(F)c(Cl)c1)C1CC[C@]2(c3cccc(C#N)c3)CC2C1` (stereo partly drawn) had a Ki of 295 nM.
The value for `CC(C)N(CCF)CCN(C(=O)Nc1ccc(F)c(Cl)c1)C1CC[C@]2(c3cccc(C#N)c3)CC2C1` (stereo partly drawn) was 12 nM; that for `CNC(=O)N1CCC(CN(C(=O)Nc2ccc(F)c(C(F)(F)F)c2)C2CC[C@]3(c4cccc(C#N)c4)CC3C2)CC1` (stereo partly drawn) was 181 nM; that for `CN(C)Cc1cccc([C@]23CCC(N(CC4CCN(S(C)(=O)=O)CC4)C(=O)Nc4ccc(F)c(Cl)c4)CC2C3)c1` (stereo partly drawn) was 15 nM.
The value for `N#Cc1cccc(NC(=O)N(CCN2CC[C@@H](O)C2)C2CC[C@]3(c4cccc(C#N)c4)CC3C2)c1` (stereo partly drawn) was 92 nM; that for `CC(C)N(CCN(C(=O)Nc1cccc(C#N)c1)C1CC[C@]2(c3cccc(C#N)c3)CC2C1)C(C)C` (stereo partly drawn) was 7.6 nM.
Consider `N#Cc1cccc([C@]23CCC(N(CCN4CC[C@@H](O)C4)C(=O)Nc4cccc(F)c4)CC2C3)c1` (stereo partly drawn), for which the affinity, expressed as Ki, was 20 nM.
`CC(C)N(CCN(C(=O)Nc1ccc(F)c(Cl)c1)C1CC[C@]2(c3cccc(CN(C)C)c3)CC2C1)C(C)C` (stereo partly drawn) gave a Ki of 13 nM.
Under `N#Cc1cccc([C@]23CCC(N(CCN4CC[C@@H](O)C4)C(=O)Nc4ccccc4)CC2C3)c1` (stereo partly drawn) stands 132 nM; under `CC(C)N(CCN(C(=O)Nc1cccc(F)c1)C1CC[C@]2(c3cccc(C#N)c3)CC2C1)C(C)C` (stereo partly drawn), 2.1 nM.
